Measured values from patent US7078403B1, “Antiviral agents” (Biota Scientific Management Pty Ltd., priority 1999, dated 2006).

Legend:
[1] = test system: HRV type 2; test: Inhibition of viral cytopathic effect (CPE), visual scoring or neutral red, HRV type 2 in KB cells; type: cell-based, human rhinovirus; details: for Activity on Rhinovirus Type 2 EC50: HRV type 2 in KB cells, CPE inhibition; for Activity on Rhinovirus Type 2 SI: selectivity index = CC50 or MTC divided by EC50, HRV type 2, KB cells
[2] = test system: HRV type 1A; test: Inhibition of viral cytopathic effect (CPE), visual scoring or neutral red, HRV type 1A in MRC-5 cells; type: cell-based, human rhinovirus; details: for Activity on Rhinovirus Type 1A EC50: HRV type 1A in MRC-5 cells, CPE inhibition; for Activity on Rhinovirus Type 1A SI: selectivity index = CC50 or MTC divided by EC50, HRV type 1A, MRC-5 cells
[3] = test system: human embryo lung (MRC-5) cells; test: Cytotoxicity (CC50 or MTC) in uninfected MRC-5 cells; details: unit not given

Compound	Activity on Rhinovirus Type 2 EC50 [1] [µg/mL]	Activity on Rhinovirus Type 2 SI [1]	Activity on Rhinovirus Type 1A EC50 [2] [µg/mL]	Activity on Rhinovirus Type 1A SI [2]	Activity on Rhinovirus Type 1A MTC [3]
CCON=C(C)c1ccc(OCCC2CCN(c3ccc(Cl)nn3)CC2)cc1 [Compound 3]	0.01	>100	0.005	1841	>10.0
CCON=C(C)c1ccc(OCCC2CCN(c3ccc(C)nn3)CC2)cc1 [Compound 4]	0.5	>2	0.39	25.55	10.00
CCON=Cc1cc(C)c(OCCCCCCc2cc(C)no2)c(C)c1 [Compound 120]			0.04	>20	>1
CCON=Cc1cc(C)c(OCCCCCCCc2cc(C)no2)c(C)c1 [Compound 121]			0.05	>16	>1
CCON=Cc1cc(C)c(OCCCCCc2cc(C)no2)c(C)c1 [Compound 122]			0.181	>5	>1
CCON=Cc1cc(C)c(OCCCCc2cc(C)no2)c(C)c1 [Compound 123]			0.060	>16	>1
Cc1cc(CCCOc2c(C)cc(C=NOCC(F)(F)F)cc2C)on1 [Compound 124]			0.719	>1	>1
CCON=Cc1ccc(OCCC2CCN(c3ccc(CO)nn3)CC2)cc1 [Compound 129]			0.048	>20	>1
CCCON=Cc1cccc(OCCN2CCN(c3ccc(C)nn3)CC2)c1 [Compound 136]			0.598	>1	>1
CCON=Cc1cc(C)c(OCCCc2cc(C3CC3)no2)c(C)c1 [Compound 137]			0.054	>18	>1
CCON=Cc1cc(C)c(OCCCCc2cc(CC)no2)c(C)c1 [Compound 138]			0.07	>15	>1
CCCc1cc(CCCCOc2c(C)cc(C=NOCC)cc2C)on1 [Compound 139]			0.19	>5	>1
CON=Cc1ccc(OCCC2CCCN(c3ccc(Cl)nn3)C2)cc1 (stereo not shown) [Compound 140]			0.016	>61	>1
C=CCON=Cc1ccc(OCCC2CCCN(c3ccc(Cl)nn3)C2)cc1 (stereo not shown) [Compound 141]			0.166	>6	>1
CCON=Cc1ccc(OCCC2CCCN(c3ccc(Cl)nn3)C2)cc1 (stereo not shown) [Compound 142]			0.055	>18	>1
Cc1ccc(N2CCC(CCOc3ccc(C=NOCCF)cc3)CC2)nn1 [Compound 143]			0.020	>50	>1
CCO/N=C/c1ccc(OCCCCCNc2ccc(Cl)nn2)cc1 [Compound 147]			0.194	>5	>1
CCO/N=C/c1ccc(OCCC2CCN(c3cnc4cc(Cl)ccc4n3)CC2)cc1 [Compound 210]			3.96	>2.5	>10
CCO/N=C/c1ccc(Oc2cnc3cc(Cl)ccc3n2)cc1 [Compound 211]			0.07	>151	>10
